Target: T1, NoCAR (Nocardia otitidiscaviarum, UniProt A0A378YSF8)
T1 construct: gene lgrD_6; pETDuet, T7 promoter, co-expressed with E. coli pyrophosphatase (EcPPase, no chain) in E. coli K12 MG1655 RARE; whole cells; CAR class approx. 130 kDa
T1 sequence (A0A378YSF8 1-1156): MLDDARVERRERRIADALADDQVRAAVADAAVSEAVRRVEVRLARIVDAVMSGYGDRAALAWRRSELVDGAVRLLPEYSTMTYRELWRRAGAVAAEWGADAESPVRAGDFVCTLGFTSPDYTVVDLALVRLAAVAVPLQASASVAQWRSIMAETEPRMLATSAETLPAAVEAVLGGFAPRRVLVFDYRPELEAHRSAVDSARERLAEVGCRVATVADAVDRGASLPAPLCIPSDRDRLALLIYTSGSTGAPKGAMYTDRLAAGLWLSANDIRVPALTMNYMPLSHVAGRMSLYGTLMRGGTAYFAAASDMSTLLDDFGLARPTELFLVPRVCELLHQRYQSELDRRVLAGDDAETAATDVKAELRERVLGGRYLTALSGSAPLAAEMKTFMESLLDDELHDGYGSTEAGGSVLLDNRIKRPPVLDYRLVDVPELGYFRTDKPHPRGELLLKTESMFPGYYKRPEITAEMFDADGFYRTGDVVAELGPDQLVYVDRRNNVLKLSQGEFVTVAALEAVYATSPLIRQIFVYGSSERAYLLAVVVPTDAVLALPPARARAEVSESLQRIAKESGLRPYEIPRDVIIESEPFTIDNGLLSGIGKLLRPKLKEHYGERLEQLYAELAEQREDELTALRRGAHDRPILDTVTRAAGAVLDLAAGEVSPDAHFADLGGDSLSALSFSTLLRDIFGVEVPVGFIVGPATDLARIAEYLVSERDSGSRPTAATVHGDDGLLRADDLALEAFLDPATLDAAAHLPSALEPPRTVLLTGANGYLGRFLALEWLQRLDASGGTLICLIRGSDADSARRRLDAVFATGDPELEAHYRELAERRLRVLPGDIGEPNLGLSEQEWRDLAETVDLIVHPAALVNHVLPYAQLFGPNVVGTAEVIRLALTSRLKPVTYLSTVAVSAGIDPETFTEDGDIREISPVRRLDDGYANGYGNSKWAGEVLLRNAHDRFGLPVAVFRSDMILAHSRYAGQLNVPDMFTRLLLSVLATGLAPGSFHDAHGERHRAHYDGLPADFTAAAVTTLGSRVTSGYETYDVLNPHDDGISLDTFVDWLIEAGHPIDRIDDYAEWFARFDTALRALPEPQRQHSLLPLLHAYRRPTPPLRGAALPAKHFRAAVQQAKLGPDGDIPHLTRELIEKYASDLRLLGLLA
Experiment: whole-cell biotransformation, ABAO assay of 3-hydroxybenzaldehyde at […] nm
Format: cell-based
Settings: 2.5 mM substrate in PBS / minimal medium with glucose, growing E. coli cells, 35 °C; no added cofactor

O=C(O)c1cccc(O)c1 [3-hydroxybenzoic acid]
whole-cell biotransformation, ABAO assay of 3-hydroxybenzaldehyde at 360 nm: The biotransformation consists of the conversion of 3-hydroxybenzoic acid to 3-hydroxybenzaldehyde

Source: publication PMC9719892, “Control of parallelized bioreactors II: probabilistic quantification of carboxylic acid reductase activity for bioprocess optimization” (Bioprocess and Biosystems Engineering, 2022)
